| melting point | SMILES |
| --- | --- |
| 126 °C | O=C(O)C[C@@H](NS(=O)(=O)c1cccc(-c2cccc(NC(=O)NCc3cccnc3)c2)c1)c1ccccc1 [Example 4.92] |
| 112 °C | C[C@@H](NS(=O)(=O)c1cccc(-c2cccc(NC(=O)NCC(F)(F)C(F)(F)F)c2)c1)C(=O)O [Example 4.93] |
| 152 °C | CCCCNC(=O)Nc1cccc(-c2cccc(S(=O)(=O)N[C@H](CC(=O)O)c3ccccc3)c2)c1 [Example 4.94] |
| 186 °C | O=C(O)C[C@@H](NS(=O)(=O)c1cccc(-c2cccc(NC(=O)NCc3ccc(C(F)(F)F)cc3)c2)c1)c1ccccc1 [Example 4.95] |
| 156 °C | CCCCNC(=O)Nc1cccc(-c2ccc(OC)c(S(=O)(=O)N[C@@H](CC(=O)O)c3ccccc3)c2)c1 [Example 4.96] |
| 162 °C | COc1ccc(-c2cccc(NC(=O)NCc3ccc(F)cc3)c2)cc1S(=O)(=O)N[C@@H](CC(=O)O)c1ccccc1 [Example 4.97] |
| 116 °C | CCCNC(=O)Nc1ccc(-c2ccc(OC)c(S(=O)(=O)NC(CC(=O)O)c3ccccc3)c2)cc1 (centres unmarked) [Example 4.98] |
| > 240 °C | COc1ccc(-c2cccc(NC(=O)Nc3nccs3)c2)cc1S(=O)(=O)NC(CC(=O)O)c1ccccc1 (centres unmarked) [Example 4.99] |
| > 240 °C | COc1ccc(-c2cccc(NC(=O)NCC(F)(F)F)c2)cc1S(=O)(=O)NC(CC(=O)O)c1ccccc1 (centres unmarked) [Example 4.100] |
| > 240 °C | COc1ccc(-c2cccc(NC(=O)NCCSC(F)(F)F)c2)cc1S(=O)(=O)NC(CC(=O)O)c1ccccc1 (centres unmarked) [Example 4.101] |
| > 240 °C | COc1ccc(-c2cccc(NC(=O)NCc3ccc(C(F)(F)F)cc3)c2)cc1S(=O)(=O)NC(CC(=O)O)c1ccccc1 (centres unmarked) [Example 4.102] |
| > 240 °C | COc1ccc(-c2cccc(NC(=O)/N=c3\[nH]c4ccc(C(=O)O)cc4[nH]3)c2)cc1S(=O)(=O)NC(CC(=O)O)c1ccccc1 (centres unmarked) [Example 4.103] |
| > 240 °C | COc1ccc(-c2cccc(NC(=O)N=c3[nH]c4cc(C)c(C)cc4[nH]3)c2)cc1S(=O)(=O)NC(CC(=O)O)c1ccccc1 (centres unmarked) [Example 4.104] |
| > 240 °C | COc1ccc2[nH]/c(=N\C(=O)Nc3cccc(-c4ccc(OC)c(S(=O)(=O)NC(CC(=O)O)c5ccccc5)c4)c3)[nH]c2c1 (centres unmarked) [Example 4.105] |
| > 240 °C | COc1ccc(-c2cccc(NC(=O)Nc3nncs3)c2)cc1S(=O)(=O)NC(CC(=O)O)c1ccccc1 (centres unmarked) [Example 4.106] |
| 117 °C | CN(CC(=O)O)S(=O)(=O)c1cccc(-c2cccc(NC(=O)NC3CC3)c2)c1 [Example 6.11] |
| 90 °C | CCCNC(=O)Nc1cccc(-c2cccc(S(=O)(=O)N(C)CC(=O)O)c2)c1 [Example 6.12] |
| 184 °C | CN(CC(=O)O)S(=O)(=O)c1cccc(-c2cccc(NC(=O)N=c3[nH]c4ccccc4[nH]3)c2)c1 [Example 6.13] |
| 142 °C | CN(CC(=O)O)S(=O)(=O)c1cccc(-c2cccc(NC(=O)Nc3ccncc3)c2)c1 [Example 6.14] |
| 90 °C | N#C/N=C(\NCc1ccccc1)Nc1cccc(-c2cccc(S(=O)(=O)NC(CC(=O)O)c3ccccc3)c2)c1 (centres unmarked) [Example 10.1.5, 3-[(3′-{[(benzylamino)(cyanoimino)methyl]amino}[1,1′-biphenyl]-3-yl)sulfonylamino]-3-phenyl-propanoic acid] |
| 120 °C | N#C/N=C(/Nc1cccc(-c2cccc(S(=O)(=O)NC(CC(=O)O)c3ccccc3)c2)c1)NC1CC1 (centres unmarked) [Example 10.3.5, 3-[(3′-{[(cyclopropylamino)(cyanoimino)methyl]amino}[1,1′-biphenyl]-3-yl)sulfonylamino]-3-phenyl-propanoic acid] |
| 178 °C | CC1(C)[C@H]2CCC1(CS(=O)(=O)N[C@@H](Cc1ccc(-c3cccc(N/C(=N/C#N)NC4CC4)c3)cc1)C(=O)O)C(=O)C2 [Example 10.5] |
| 184 °C | CCCN/C(=N\C#N)Nc1cccc(-c2ccc(C[C@H](NS(=O)(=O)c3c(C)cc(C)cc3C)C(=O)O)cc2)c1 [Example 10.6] |
| 169 °C | Cc1cc(C)c(S(=O)(=O)N[C@@H](Cc2ccc(-c3cccc(N/C(=N/C#N)NCc4ccccc4)c3)cc2)C(=O)O)c(C)c1 [Example 10.8] |
| 174 °C (dec.) | Cc1cc(C)c(S(=O)(=O)N[C@@H](Cc2ccc(-c3cccc(N/C(=N/C#N)NCc4ccccn4)c3)cc2)C(=O)O)c(C)c1 [Example 10.9] |
| 149 °C | Cc1cc(C)c(S(=O)(=O)N[C@@H](Cc2ccc(-c3cccc(N/C(=C/[N+](=O)[O-])NC4CC4)c3)cc2)C(=O)O)c(C)c1 [Example 12.1.5, (2S)-3-(3′-{[(E)-1-(cyclopropylamino)-2-nitroethenyl]amino}[1,1′-biphenyl]-4-yl)-2-[(mesitylsulfonyl)amino]-propanoic acid] |
| 150 °C (dec.) | C=CCN/C(=C\[N+](=O)[O-])Nc1cccc(-c2ccc(C[C@H](NS(=O)(=O)CC34CC[C@@H](CC3=O)C4(C)C)C(=O)O)cc2)c1 [Example 12.5] |

| melting point | SMILES |
| --- | --- |
| 185 °C (dec.) | C#CCN/C(=C\[N+](=O)[O-])Nc1cccc(-c2ccc(C[C@H](NS(=O)(=O)CC34CC[C@@H](CC3=O)C4(C)C)C(=O)O)cc2)c1 [Example 12.6] |
| 126 °C (dec.) | CC1(C)[C@H]2CCC1(CS(=O)(=O)N[C@@H](Cc1ccc(-c3cccc(N/C(=C/[N+](=O)[O-])NCc4ccccn4)c3)cc1)C(=O)O)C(=O)C2 [Example 12.7] |
| 170 °C | CC1(C)[C@H]2CCC1(CS(=O)(=O)N[C@@H](Cc1ccc(-c3cccc(N/C(=C/[N+](=O)[O-])NCc4cccnc4)c3)cc1)C(=O)O)C(=O)C2 [Example 12.8] |
| 151 °C (dec.) | CC1(C)[C@H]2CCC1(CS(=O)(=O)N[C@@H](Cc1ccc(-c3cccc(N/C(=C/[N+](=O)[O-])NC4CCC4)c3)cc1)C(=O)O)C(=O)C2 [Example 12.9] |
| 164 °C | Cc1cc(C)c(S(=O)(=O)N[C@@H](Cc2ccc(-c3cccc(Nc4c(NC5CC5)c(=O)c4=O)c3)cc2)C(=O)O)c(C)c1 [Example 13.1.3, (2S)-3-(3′-{[2-(cyclopropylamino)-3,4-dioxo-1-cyclobuten-1-yl]-amino}[1,1′-biphenyl]-4-yl)-2-[(mesitylsulfonyl)amino]-propanoic acid] |
| 204 °C (dec.) | O=C(O)CNS(=O)(=O)c1cccc(-c2cccc(Nc3c(NC4CC4)c(=O)c3=O)c2)c1 [Example 13.2] |
| 214 °C (dec.) | Cc1cc(C)c(S(=O)(=O)N[C@@H](Cc2ccc(-c3cccc(Nc4c(NCc5ccccn5)c(=O)c4=O)c3)cc2)C(=O)O)c(C)c1 [Example 13.3] |
| 226 °C (dec.) | Cc1cc(C)c(S(=O)(=O)N[C@@H](Cc2ccc(-c3cccc(Nc4c(NCc5ccccc5)c(=O)c4=O)c3)cc2)C(=O)O)c(C)c1 [Example 13.4] |
| 152 °C | CC1(C)[C@H]2CCC1(CS(=O)(=O)N[C@@H](Cc1ccc(-c3cccc(NC4=C(NC5CC5)C(=O)C4O)c3)cc1)C(=O)O)C(=O)C2 (some centres unmarked) [Example 13.5] |
| 191 °C (dec.) | O=C(O)CC(NS(=O)(=O)c1cccc(-c2cccc(Nc3c(Nc4nc5ccccc5[nH]4)c(=O)c3=O)c2)c1)c1ccccc1 (centres unmarked) [Example 13.6] |
| 214 °C (dec.) | O=C(O)CC(NS(=O)(=O)c1cccc(-c2cccc(Nc3c(NC4CC4)c(=O)c3=O)c2)c1)c1ccccc1 (centres unmarked) [Example 13.7] |
| 149 °C (dec.) | O=C(O)CC(NS(=O)(=O)c1cccc(-c2cccc(Nc3c(NCc4ccccn4)c(=O)c3=O)c2)c1)c1ccccc1 (centres unmarked) [Example 13.8] |
| 210 °C (dec.) | CS(=O)(=O)N[C@@H](Cc1ccc(-c2cccc(Nc3c(NC4CC4)c(=O)c3=O)c2)cc1)C(=O)O [Example 13.9] |
| 219 °C (dec.) | O=C(O)CC(NS(=O)(=O)c1cccc(-c2cccc(Nc3c(NCC(F)(F)F)c(=O)c3=O)c2)c1)c1cccnc1 (centres unmarked) [Example 13.11] |
| 130 °C (dec.) | O=C(O)CC(NS(=O)(=O)c1cccc(-c2cccc(Nc3nccs3)c2)c1)c1ccccc1 (centres unmarked) [Example 15.1.2, 3-phenyl-3-{[3′-(1,3-thiazol-2-ylamino)[1,1′-biphenyl]-3-yl]sulfonylamino}-propanoic acid] |
| 190 °C (dec.) | Cc1cc(C)c(S(=O)(=O)N[C@@H](Cc2ccc(-c3cccc(Nc4nc5ccccc5[nH]4)c3)cc2)C(=O)O)c(C)c1 [Example 16.1.3, (2S)-3-[3′-(1H-benzimidazol-2-ylamino)[1,1′-biphenyl]-4-yl]-2-[(mesitylsulfonyl)amino]propanoic acid] |
| 180 °C (dec.) | Cc1cc(C)c(S(=O)(=O)N[C@@H](Cc2ccc(-c3cccc(Nc4n[s+]([O-])nc4NC4CC4)c3)cc2)C(=O)O)c(C)c1 (stereo partly drawn) [Example 17.1.3, (2S)-2-[(Mesitylsulfonyl)amino]-3-(3′-{[4-(cyclopropylamino)-1-oxo-1H-1[lambda]4,2,5-thiadiazol-3-yl]amino}[1,1′-biphenyl]-4-yl)-propanoic acid] |
| 138 °C | COc1ccc(-c2cccc(CNc3ccccn3)c2)cc1S(=O)(=O)NC(CC(=O)O)c1ccccc1 (centres unmarked) [Example 18.3] |
| > 240 °C | Cc1cc(C)c(S(=O)(=O)N[C@@H](Cc2ccc(-c3cccc(CNc4nc5ccccc5[nH]4)c3)cc2)C(=O)O)c(C)c1 [Example 18.4] |
| > 240 °C | COc1ccc(-c2cccc(CNc3nc4ccccc4[nH]3)c2)cc1S(=O)(=O)NC(CC(=O)O)c1ccccc1 (centres unmarked) [Example 18.5] |
| > 240 °C | CCS(=O)(=O)N[C@@H](Cc1ccc(-c2cccc(CNc3ccccn3)c2)cc1)C(=O)O [Example 18.7] |
| > 240 °C | O=C(O)[C@H](Cc1ccc(-c2cccc(CNc3ccccn3)c2)cc1)NS(=O)(=O)c1ccc(F)cc1 [Example 18.8] |
| > 240 °C | O=C(O)[C@H](Cc1ccc(-c2cccc(CNc3ccccn3)c2)cc1)NS(=O)(=O)c1cccs1 [Example 18.9] |
| > 240 °C | O=C(O)[C@H](Cc1ccc(-c2cccc(CNc3ccccn3)c2)cc1)NS(=O)(=O)Cc1ccc(F)cc1 [Example 18.10] |
| > 240 °C | O=C(O)[C@H](Cc1ccc(-c2cccc(CNc3ccccn3)c2)cc1)NS(=O)(=O)C1CC1 [Example 18.11] |
| > 240 °C | O=C(O)[C@H](Cc1ccc(-c2cccc(CNc3ccccn3)c2)cc1)NS(=O)(=O)c1c(F)cccc1F [Example 18.12] |

Source: patent US7094911B2, “Biphenyl and biphenyl-analogous compounds as integrin antagonists” (Bayer Aktiengesellschaft, priority 1998, dated 2006)
